Measurements from patent publication US12180193B2, “Accelerating fibrosarcoma protein degrading compounds and associated methods of use” (Arvinas Operations, Inc., priority 2020, dated 2024).

Key:
BRAF G466V = target: T1, BRAF G466V (Homo sapiens, UniProt P15056, G466V); experiment: Cellular assay of target protein degradation, T-Rex 293 cells stably transfected with HA-BRAF G466V (HA immunofluorescence, high content imaging); assay type: cell-based; details: T-Rex 293 HA-BRAF G466V; for DC50: half maximal degradation, read-out: BRaf G466V DC50; for Dmax: maximum degradation observed
T1 construct: expressed in transfected cells
Summary of the method: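 Doxycycline-induced (0.75 ng/mL) cells treated 24 h at 37 °C with compound from 30 nM to 3 pM (0.1% DMSO). After fixation and permeabilisation, HA-tagged BRAF G466V immunostained and quantified by high-content imaging. DC50 and Dmax (percent of control) derived.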

BRAF V600E = target: T2, BRAF V600E (Homo sapiens, UniProt P15056, V600E); experiment: Cellular assay of target protein degradation, T-Rex 293 cells stably transfected with HA-BRAF_V600E (HA immunofluorescence, high content imaging); assay type: cell-based; details: T-Rex 293 HA-BRAF V600E; for DC50: half maximal degradation, read-out: BRaf V600E DC50; for Dmax: maximum degradation observed
T2 construct: expressed in transfected cells
Summary of the method: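 Doxycycline-induced (1 ng/mL) T-Rex 293 cells expressing HA-BRAF V600E treated 24 h at 37 °C with compound at 1 μM to 0.1 nM final in 0.1% DMSO. Remaining HA-tagged protein quantified by fixed-cell anti-HA immunofluorescence and high-content imaging; DC50 and Dmax (% of control) derived.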

T1 sequence (P15056 whole entry G466V): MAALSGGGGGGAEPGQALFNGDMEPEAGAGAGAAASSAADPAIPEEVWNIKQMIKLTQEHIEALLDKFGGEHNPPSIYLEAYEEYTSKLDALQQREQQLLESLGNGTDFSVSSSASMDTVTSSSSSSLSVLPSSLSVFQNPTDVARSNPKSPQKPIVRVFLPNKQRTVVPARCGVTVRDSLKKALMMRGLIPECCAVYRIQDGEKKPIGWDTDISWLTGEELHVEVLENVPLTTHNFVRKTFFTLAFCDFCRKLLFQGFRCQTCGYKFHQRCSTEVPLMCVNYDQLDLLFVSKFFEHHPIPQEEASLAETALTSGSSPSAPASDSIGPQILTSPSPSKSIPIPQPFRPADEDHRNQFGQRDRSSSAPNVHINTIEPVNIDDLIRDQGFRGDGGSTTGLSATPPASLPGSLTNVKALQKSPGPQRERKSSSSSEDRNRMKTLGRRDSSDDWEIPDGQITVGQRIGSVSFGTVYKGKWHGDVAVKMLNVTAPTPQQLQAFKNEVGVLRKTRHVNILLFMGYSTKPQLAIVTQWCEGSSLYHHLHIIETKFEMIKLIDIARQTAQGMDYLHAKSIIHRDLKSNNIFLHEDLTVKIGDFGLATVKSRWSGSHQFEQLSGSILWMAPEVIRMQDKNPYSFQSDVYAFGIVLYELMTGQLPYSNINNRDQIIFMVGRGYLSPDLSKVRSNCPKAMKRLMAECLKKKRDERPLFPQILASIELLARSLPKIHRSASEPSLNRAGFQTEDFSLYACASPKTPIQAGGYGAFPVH
T2 sequence (P15056 whole entry V600E): as the sequence (P15056 whole entry G466V) above, with V466G, V600E counted along it

Row | Compound | DC50 (BRAF G466V) | Dmax (BRAF G466V) | DC50 (BRAF V600E) | Dmax (BRAF V600E)
1 | O=C1CCC(N2Cc3cc(N4CC5(CN(CC#Cc6ccc(-c7cnc8[nH]cc(C(=O)c9c(F)ccc(NS(=O)(=O)N%10CC[C@@H](F)C%10)c9F)c8c7)cc6)C5)C4)ccc3C2=O)C(=O)N1 (stereo partly drawn) [Compound 42, (3R)-N-(3-{5-[4-(3-{6-[2-(2,6-dioxopiperidin-3-yl)-1-oxo-2,3-dihydro-1H-isoindol-5-yl]-2,6-diazaspiro[3.3]heptan-2-yl}prop-1-yn-1-yl)phenyl]-1H-pyrrolo [2,3-b]pyridine-3-carbonyl}-2,4-difluorophenyl)-3-fluoropyrrolidine-1-sulfonamide] | 1 to 10 nM | 35 to 70% | 5 to 50 nM | 35 to 70%
2 | O=C1CC[C@@H](NC(=O)c2ccc(C3CCN(CC4CCN(c5ccc(-c6cnc7[nH]cc(C(=O)c8c(F)ccc(NS(=O)(=O)N9CC[C@@H](F)C9)c8F)c7c6)cc5)CC4)CC3)cc2F)C(=O)N1 [Compound 48, 4-(1-{[1-(4-{3-[2,6-difluoro-3-({[(3R)-3-fluoropyrrolidin-1-yl]sulfonyl}amino)benzoyl]-1H-pyrrolo[2,3-b]pyridin-5-yl}phenyl)piperidin-4-yl]methyl}piperidin-4-yl)-N-[(3R)-2,6-dioxopiperidin-3-yl]-2-fluorobenzamide] | 1 to 10 nM | < 35% | 50 to 500 nM | < 35%
3 | O=C1CC[C@H](N2Cc3cc(C[C@H](O)CN4CC5(C4)CN(c4ccc(-c6cnc7[nH]cc(C(=O)c8c(F)ccc(NS(=O)(=O)N9CC[C@@H](F)C9)c8F)c7c6)cc4)C5)ccc3C2=O)C(=O)N1 [Compound 170, (3R)-N-{3-[5-(4-{6-[(2S)-3-{2-[(3S)-2,6-dioxopiperidin-3-yl]-1-oxo-2,3-dihydro-1H-isoindol-5-yl}-2-hydroxypropyl]-2,6-diazaspiro[3.3]heptan-2-yl}phenyl)-1H-pyrrolo[2,3-b]pyridine-3-carbonyl]-2,4-difluorophenyl}-3-fluoropyrrolidine-1-sulfonamide] | 1 to 10 nM | > 70% | 50 to 500 nM | 35 to 70%
4 | O=C1CC[C@@H](N2Cc3cc([C@@H](O)CCN4CCC(c5ccc(-c6cnc7[nH]cc(C(=O)c8c(F)ccc(NS(=O)(=O)N9CC[C@@H](F)C9)c8F)c7c6)cc5)CC4)ccc3C2=O)C(=O)N1 [Compound 72, (3R)-N-{3-[5-(4-{1-[(3S)-3-{2-[(3R)-2,6-dioxopiperidin-3-yl]-1-oxo-2,3-dihydro-1H-isoindol-5-yl}-3-hydroxypropyl]piperidin-4-yl}phenyl)-1H-pyrrolo[2,3-b]pyridine-3-carbonyl]-2,4-difluorophenyl}-3-fluoropyrrolidine-1-sulfonamide] | 1 to 10 nM | 35 to 70% | 5 to 50 nM | < 35%
5 | O=C1CC[C@H](N2Cc3cc(N4CCC(CN5CCN(c6ccc(-c7cnc8[nH]cc(C(=O)c9c(F)ccc(NS(=O)(=O)N%10CC[C@@H](F)C%10)c9F)c8c7)cc6)CC5)CC4)ccc3C2=O)C(=O)N1 [Compound 223, (3R)-N-{3-[5-(4-{4-[(1-{2-[(3S)-2,6-dioxopiperidin-3-yl]-1-oxo-2,3-dihydro-1H-isoindol-5-yl}piperidin-4-yl)methyl]piperazin-1-yl}phenyl)-1H-pyrrolo [2,3-b]pyridine-3-carbonyl]-2,4-difluorophenyl}-3-fluoropyrrolidine-1-sulfonamide] | 1 to 10 nM | > 70% | 5 to 50 nM | 35 to 70%
6 | O=C1CCN(c2ccc(C3CCN(CCC4CCN(c5ccc(-c6cnc7[nH]cc(C(=O)c8c(F)ccc(NS(=O)(=O)N9CC[C@@H](F)C9)c8F)c7c6)cc5)CC4)CC3)cc2F)C(=O)N1 [Compound 199, (3R)-N-[3-(5-[4-[4-(2-[4-[4-(2,4-dioxo-1,3-diazinan-1-yl)-3-fluorophenyl]piperidin-1-yl]ethyl)piperidin-1-yl]phenyl]-1H-pyrrolo[2,3-b]pyridine-3-carbonyl)-2,4-difluorophenyl]-3-fluoropyrrolidine-1-sulfonamide] | 1 to 10 nM | 35 to 70% | 5 to 50 nM | 35 to 70%
7 | O=C1CCC(N2Cc3cc(OCCCCN4CCN(c5ccc(-c6cnc7[nH]cc(C(=O)c8c(F)ccc(NS(=O)(=O)N9CCC(F)(F)C9)c8F)c7c6)cc5)CC4)ccc3C2=O)C(=O)N1 (stereo not drawn) [Compound 251, N-[3-(5-{4-[4-(4-{[2-(2,6-dioxopiperidin-3-yl)-1-oxo-2,3-dihydro-1H-isoindol-5-yl]oxy}butyl)piperazin-1-yl]phenyl}-1H-pyrrolo[2,3-b]pyridine-3-carbonyl)-2,4-difluorophenyl]-3,3-difluoropyrrolidine-1-sulfonamide] | 1 to 10 nM | 35 to 70% | 5 to 50 nM | 35 to 70%
8 | O=C1CCC(N2Cc3cc(CCCOCC4CCN(c5ccc(-c6cnc7[nH]cc(C(=O)c8c(F)ccc(NS(=O)(=O)N9CC[C@@H](F)C9)c8F)c7c6)cc5)CC4)ccc3C2=O)C(=O)N1 (stereo partly drawn) [Compound 294, (3R)-N-[3-(5-{4-[4-({3-[2-(2,6-dioxopiperidin-3-yl)-1-oxo-2,3-dihydro-1H-isoindol-5-yl]propoxy}methyl)piperidin-1-yl]phenyl}-1H-pyrrolo[2,3-b]pyridine-3-carbonyl)-2,4-difluorophenyl]-3-fluoropyrrolidine-1-sulfonamide] | 1 to 10 nM | 35 to 70% | 50 to 500 nM | 35 to 70%
9 | O=C1CC[C@@H](N2Cc3cc(N4CCC(CN5CC6(C5)CN(c5ccc(-c7cnc8[nH]cc(C(=O)c9c(F)ccc(NS(=O)(=O)N%10CC[C@@H](F)C%10)c9F)c8c7)cc5)C6)CC4)c(F)cc3C2=O)C(=O)N1 [Compound 56, (3R)-N-{3-[5-(4-{6-[(1-{2-[(3R)-2,6-dioxopiperidin-3-yl]-6-fluoro-1-oxo-2,3-dihydro-1H-isoindol-5-yl}piperidin-4-yl)methyl]-2,6-diazaspiro[3.3]heptan-2-yl}phenyl)-1H-pyrrolo[2,3-b]pyridine-3-carbonyl]-2,4-difluorophenyl}-3-fluoropyrrolidine-1-sulfonamide] | < 1 nM | > 70% | 5 to 50 nM | 35 to 70%
10 | COc1cc(N2CC(N3CCN(c4ccc(-c5cnc6[nH]cc(C(=O)c7c(F)ccc(NS(=O)(=O)N8CC[C@@H](F)C8)c7F)c6c5)cc4)CC3)C2)cc2c1C(=O)N(C1CCC(=O)NC1=O)C2 (stereo partly drawn) [Compound 79, (3R)-N-(3-{5-[4-(4-{1-[2-(2,6-dioxopiperidin-3-yl)-7-methoxy-1-oxo-2,3-dihydro-1H-isoindol-5-yl]azetidin-3-yl}piperazin-1-yl)phenyl]-1H-pyrrolo[2,3-b]pyridine-3-carbonyl}-2,4-difluorophenyl)-3-fluoropyrrolidine-1-sulfonamide] | > 30 nM | – | 5 to 50 nM | 35 to 70%

Now from value to compound:

Row | DC50 (BRAF G466V) | Dmax (BRAF G466V) | DC50 (BRAF V600E) | Dmax (BRAF V600E) | Compound
11 | 10 to 30 nM | > 70% | 5 to 50 nM | 35 to 70% | O=C1CCC(N2Cc3cc(C4CCN(CC[C@H]5CCN(c6ccc(-c7cnc8[nH]cc(C(=O)c9c(F)ccc(NS(=O)(=O)N%10CC[C@@H](F)C%10)c9F)c8c7)cc6)C5)CC4)ccc3C2=O)C(=O)N1 (stereo partly drawn) [Compound 217, (3R)-N-[3-(5-{4-[(3S)-3-(2-{4-[2-(2,6-dioxopiperidin-3-yl)-1-oxo-2,3-dihydro-1H-isoindol-5-yl]piperidin-1-yl}ethyl)pyrrolidin-1-yl]phenyl}-1H-pyrrolo [2,3-b]pyridine-3-carbonyl)-2,4-difluorophenyl]-3-fluoropyrrolidine-1-sulfonamide]
12 | > 30 nM | – | 50 to 500 nM | 35 to 70% | O=C1CC[C@H](NC(=O)c2ccc(CCCN3CC4(C3)CN(c3ccc(-c5cnc6[nH]cc(C(=O)c7c(F)ccc(NS(=O)(=O)N8CC[C@@H](F)C8)c7F)c6c5)cc3)C4)cc2F)C(=O)N1 [Compound 355, 4-{3-[6-(4-{3-[2,6-difluoro-3-({[(3R)-3-fluoropyrrolidin-1-yl]sulfonyl}amino)benzoyl]-1H-pyrrolo[2,3-b]pyridin-5-yl}phenyl)-2,6-diazaspiro[3.3]heptan-2-yl]propyl}-N-[(3S)-2,6-dioxopiperidin-3-yl]-2-fluorobenzamide]
13 | < 1 nM | 35 to 70% | 5 to 50 nM | 35 to 70% | COc1cc(C2CCN(CC3CC4(C3)CN(c3ccc(-c5cnc6[nH]cc(C(=O)c7c(F)ccc(NS(=O)(=O)N8CC[C@@H](F)C8)c7F)c6c5)cc3)C4)CC2)cc2c1C(=O)N(C1CCC(=O)NC1=O)C2 (stereo partly drawn) [Compound 54, (3R)-N-[3-(5-{4-[6-({4-[2-(2,6-dioxopiperidin-3-yl)-7-methoxy-1-oxo-2,3-dihydro-1H-isoindol-5-yl]piperidin-1-yl}methyl)-2-azaspiro[3.3]heptan-2-yl]phenyl}-1H-pyrrolo[2,3-b]pyridine-3-carbonyl)-2,4-difluorophenyl]-3-fluoropyrrolidine-1-sulfonamide]
14 | 1 to 10 nM | > 70% | 5 to 50 nM | < 35% | O=C1CCC(c2ccc(C3CCN(CC4CCN(c5ccc(-c6cnc7[nH]cc(C(=O)c8c(F)ccc(NS(=O)(=O)N9CC[C@@H](F)C9)c8F)c7c6)cc5)CC4)CC3)cc2F)C(=O)N1 (stereo partly drawn) [Compound 168, (3R)-N-[3-(5-{4-[4-({4-[4-(2,6-dioxopiperidin-3-yl)-3-fluorophenyl]piperidin-1-yl}methyl)piperidin-1-yl]phenyl}-1H-pyrrolo[2,3-b]pyridine-3-carbonyl)-2,4-difluorophenyl]-3-fluoropyrrolidine-1-sulfonamide]
